# From patent publication US4569907A, “Thiopeptolide substrates for vertebrate collagenase” (Monsanto Company, priority 1984, dated 1986)
# Non-standard residues stand in square brackets, D forms with d. Residues, ends and D or L forms follow the SMILES beside them. *: point of attachment. Dnp = O=[N+]([O-])c1ccc(*)c([N+](=O)[O-])c1
# Key:
# Assay type in all cases: biochemical
# collagenase = biological target: T1, collagenase (Homo sapiens, UniProt P03956); assay: HPLC assay of substrate hydrolysis by collagenase (comparison substrates without chromophores); conditions: Table I Comparison of Substrate; assayed by HPLC
# T1 construct: endogenous in cells; host or cells: normal human skin fibroblasts (culture media)
# T1 sequence (P03956 100-469): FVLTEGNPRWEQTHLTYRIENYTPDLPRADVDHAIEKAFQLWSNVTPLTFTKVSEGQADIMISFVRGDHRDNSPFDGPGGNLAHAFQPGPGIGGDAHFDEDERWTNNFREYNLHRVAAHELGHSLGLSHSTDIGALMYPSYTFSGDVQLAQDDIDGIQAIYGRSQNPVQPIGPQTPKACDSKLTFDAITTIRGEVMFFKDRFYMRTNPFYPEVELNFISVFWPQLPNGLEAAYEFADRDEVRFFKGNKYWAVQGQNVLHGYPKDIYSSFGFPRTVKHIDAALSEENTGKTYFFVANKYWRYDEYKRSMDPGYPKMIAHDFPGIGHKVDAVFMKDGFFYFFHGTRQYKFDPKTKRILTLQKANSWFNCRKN
# Method: (§1) The following Table I sets forth the relative rates of hydrolysis in the above spectrophotometric assay using ther above thiopeptolides as substrates in comparison to the rates of hydrolysis assayed by High Performance Liquid Chromatography (HPLC) of two commercially available substrates for collagenase and two other substrates described in copending application Ser. No. 450,318, cited hereinbefore.
# [1] = biological target: T2, Collagenase from culture media of normal human skin fibroblasts (Homo sapiens, UniProt P03956); assay: Spectrophotometric assay for collagenase: hydrolysis of thiopeptolide substrates with 4,4'-dithiodipyridine or Ellman's reagent; conditions: for Relative Rate (of hydrolysis): Table I Comparison of Substrate, spectrophotometric assay, pH 6.5-7.0, initial rates
# T2 construct: endogenous in cells; host or cells: normal human skin fibroblasts (culture media)
# T2 sequence (P03956 100-469): T1 sequence (P03956 100-469)
# Method: Collagenase was prepared from culture media of normal human skin fibroblasts substantially according to the procedure of Stricklin et al., Biochem. 16 1607 (1977). The enzyme (23 μg/ml in 0.5 M tris buffer [tris(hydroxymethyl) amino methane], 0.01 M CaCl2, pH 7.5) was activated by incubating 10 μl samples with one μl of trypsin (10 mg/ml in 1 mM HCl) for twenty minutes at room temperature followed by addition of 20 μl of soybean trypsin inhibitor (5 mg/ml in 0.05 M tris buffer, 0.01 M CaCl2, pH 7.5).
# The activated enzyme was diluted 100 to 2000 fold for use with each of the following substrate thiopeptolides:
# (§2) The spectrophotometric assay was carried out at substrate concentrations of from 0.01 mM to 5 mM in 0.05 M HEPES buffer (N-2-hydroxyethylpiperizine-N'-2-ethanesulfonic acid) with 0.01 M CaCl2 at a pH of 6.5-7.0 and containing 0.5 mM to 1.0 mM 4,4'-dithiodipyridine (or Ellman's Reagent). The total reaction volume was 250 μl including 10 to 100 μl of the diluted activated enzyme. The reaction solutions were placed in 10 mm pathlength, self-masking microcuvettes and the hydrolysis followed using a Gilford model 250 spectrophotometer at 324 λ(410 λ for Ellman's Reagent) and equipped with a Gilford model 6051 recorder. The initial rates were limited to the first 5% of reaction and were corrected for non-enzymatic hydrolysis, which never exceeded 25% of the total reaction at pH 6.5-7.0. The 4,4'dithiodipyridine (or Ellman's Reagent) at 0.5 mM was in large excess under the initial rate assay conditions and was not rate limiting.
# as §1
# Kallikrein = assay: Enzyme selectivity for thiopeptolide, spectrophotometric hydrolysis; conditions: Table II Enzyme Selectivity
# Method: as §2
# (§3) The ability of five proteolytic enzymes other than collagenase to cleave the synthetic substrate Ac-Pro-Leu-Gly-S-Leu-Leu-Gly-OC2 H5 was tested by hydrolysis and following spectrophotometrically as in Example 14. The following Table II sets forth the relative selectivity of these enzymes in comparison to vertebrate collagenase.
# Carboxypeptidase Y = biological target: T3, Carboxypeptidase Y (Saccharomyces cerevisiae, UniProt P00729); assay: as above; conditions: Table II Enzyme Selectivity
# T3 sequence (P00729 112-532): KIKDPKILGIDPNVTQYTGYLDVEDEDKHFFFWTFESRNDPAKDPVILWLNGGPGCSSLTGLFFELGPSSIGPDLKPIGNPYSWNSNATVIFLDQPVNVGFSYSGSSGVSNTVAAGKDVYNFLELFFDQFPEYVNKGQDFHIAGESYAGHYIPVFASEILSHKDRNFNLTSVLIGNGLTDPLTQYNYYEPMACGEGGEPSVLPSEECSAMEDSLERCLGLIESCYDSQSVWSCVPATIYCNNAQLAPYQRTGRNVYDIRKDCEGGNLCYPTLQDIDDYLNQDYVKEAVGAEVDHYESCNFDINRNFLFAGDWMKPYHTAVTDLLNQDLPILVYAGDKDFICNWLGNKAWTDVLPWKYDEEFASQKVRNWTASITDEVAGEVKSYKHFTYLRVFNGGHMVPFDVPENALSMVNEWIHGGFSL
# Method: as §2, §3
# Trypsin = biological target: T4, Trypsin (Bos taurus, UniProt P00760); assay: as above; conditions: Table II Enzyme Selectivity
# T4 sequence (P00760 24-246): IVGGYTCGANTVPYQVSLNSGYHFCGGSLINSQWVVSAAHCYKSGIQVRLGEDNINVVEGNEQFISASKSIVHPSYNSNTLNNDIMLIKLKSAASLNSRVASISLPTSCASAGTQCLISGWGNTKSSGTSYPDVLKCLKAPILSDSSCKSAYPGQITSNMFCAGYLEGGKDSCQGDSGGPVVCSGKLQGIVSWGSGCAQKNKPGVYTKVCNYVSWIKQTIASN
# Method: as §2, §3
# Elastase = assay: as above; conditions: Table II Enzyme Selectivity
# Method: as §2, §3
# α-Chymotrypsin = α-Chymotrypsin (Bos taurus, UniProt P00766); assay: as above; conditions: Table II Enzyme Selectivity
# Method: as §2, §3
# vertebrate collagenase = biological target: T5, vertebrate collagenase (Homo sapiens, UniProt P03956); assay: Inhibition of vertebrate collagenase (I50, median inhibitory concentration)
# T5 sequence (P03956 100-469): T1 sequence (P03956 100-469)
Relative Rate (of hydrolysis) [1],Compound,Relative Rate (of hydrolysis) (collagenase),further results
–,CCOC(=O)CNC(=O)[C@H](C)NC(=O)[C@H](CC(C)C)NC(=O)CNC(=O)[C@H](CC(C)C)NC(=O)[C@@H]1CCCN1C(C)=O [Ac--Pro--Leu--Gly--Leu--Ala--Gly--OC2 H5] (Ac-PLGLAG-OEt),110,–
–,CCOC(=O)CNC(=O)[C@H](CC(C)C)NC(=O)[C@H](CC(C)C)NC(=O)CNC(=O)[C@H](CC(C)C)NC(=O)[C@@H]1CCCN1C(C)=O [Ac--Pro--Leu--Gly--Leu--Leu--Gly--OC2 H5] (Ac-PLGLLG-OEt),250,–
950,CCOC(=O)CNC(=O)[C@H](C)NC(=O)[C@H](CC(C)C)SC(=O)CNC(=O)[C@H](C)NC(=O)[C@@H]1CCCN1C(C)=O [Ac-Pro-Ala-Gly-S-Leu-Ala-Gly-OC2 H5],–,–
2800,CCOC(=O)CNC(=O)[C@H](Cc1ccccc1)NC(=O)[C@H](CC(C)C)SC(=O)CNC(=O)[C@H](C)NC(=O)[C@@H]1CCCN1C(C)=O [Ac-Pro-Ala-Gly-S-Leu-Phe-Gly-OC2 H5],–,–
8800,CCOC(=O)CNC(=O)[C@H](CC(C)C)NC(=O)[C@H](CC(C)C)SC(=O)CNC(=O)[C@H](CC(C)C)NC(=O)[C@@H]1CCCN1C(C)=O [Ac-Pro-Leu-Gly-S-Leu-Leu-Gly-OC2 H5],–,"Relative Rate (Kallikrein): 4.3; Relative Rate (Carboxypeptidase Y): 0.03; Relative Rate (Trypsin): 0.07; Relative Rate (Elastase): 12; Relative Rate (α-Chymotrypsin): 2.0; Relative Rate ([1]; Table II Enzyme Selectivity, Vertebrate Collagenase, same as in Example 14): 260"
5900,CCOC(=O)CNC(=O)[C@H](Cc1ccccc1)NC(=O)[C@H](CC(C)C)SC(=O)CNC(=O)[C@H](CC(C)C)NC(=O)[C@@H]1CCCN1C(C)=O [Ac-Pro-Leu-Gly-S-Leu-Phe-Gly-OC2 H5],–,–
–,CCOC(=O)CNC(=O)[C@H](CC(C)C)NC(=O)[C@@H](S)CC(C)C [HS-Leu-Leu-Gly-OC2 H5],–,IC50 (vertebrate collagenase): 1 µM
–,"DNP-Pro-Gln-Gly-Ile-Ala-Gly-Gln-D-Arg-OH (Dnp-PQGIAGQ[dR]-OH; SMILES CC[C@H](C)[C@H](NC(=O)CNC(=O)[C@H](CCC(N)=O)NC(=O)[C@@H]1CCCN1c1ccc([N+](=O)[O-])cc1[N+](=O)[O-])C(=O)N[C@@H](C)C(=O)NCC(=O)N[C@@H](CCC(N)=O)C(=O)N[C@H](CCCNC(=N)N)C(=O)O) [commercially available synthetic collagenase substrate, Peninsula Laboratories; DNP=Dinitrophenyl]",5,–
–,"DNP-Pro-Leu-Gly-Ile-Ala-Gly-Arg-NH2 (Dnp-PLGIAGR-NH2; SMILES CC[C@H](C)[C@H](NC(=O)CNC(=O)[C@H](CC(C)C)NC(=O)[C@@H]1CCCN1c1ccc([N+](=O)[O-])cc1[N+](=O)[O-])C(=O)N[C@@H](C)C(=O)NCC(=O)N[C@@H](CCCNC(=N)N)C(N)=O) [commercially available synthetic collagenase substrate, Peninsula Laboratories; DNP=Dinitrophenyl]",25,–
